Measurements from article PMC8009520, “Exploration of TRPM8 Binding Sites by β-Carboline-Based Antagonists and Their In Vitro Characterization and In Vivo Analgesic Activities” (Journal of Medicinal Chemistry, 2020).
Read-outs that look alike come from different tables or passages of the source.

Biological target: T1, rat isoform of TRPM8 channels (Rattus norvegicus, UniProt Q8R455)
T1 construct: expressed in transfected cells
Assay: Ca2+ fluorimetric assay, menthol-activated channel
Type: cell-based
Procedure: TRPM8 blocker activity of all synthesized compounds was tested by Ca^2+ fluorimetric assays using HEK-293 cells stably expressing the rat isoform of TRPM8 channels, using menthol and AMTB as prototypical agonist and antagonist, respectively.
For measurement of the potency of the compounds, fluorimetric experiments were performed using HEK-293 cells (CRL-1573TM, American Type Culture Collection, LGC Promochem, Molsheim, France) that stably express rat TRPM8. The cells were seeded in 96-well plates (Corning Incorporated, Corning, NY) at a cell density of 40 000 cells 2 days before treatment. On the day of treatment, the medium was replaced with 100 μL of the dye loading solution Fluo-4 NW supplemented with probenecid 2.5 mM.
The tested molecules dissolved in DMSO were added at the desired concentrations, and the plates were incubated in darkness at 37 °C in a humidified atmosphere of 5% CO2 for 60 min. The fluorescence was measured using instrument settings appropriate for excitation at 485 nm and emission at 535 nm (POLARstar Omega BMG LABtech). A baseline recording of four cycles was recorded prior to stimulation with the agonist (100 μM menthol for TRPM8). The TRPM8 antagonist, 10 μM AMTB, was added to the medium containing the corresponding agonist to induce channel blockade. The changes in fluorescence intensity were recorded during 15 cycles more. The higher concentration of DMSO used in the experiment was added to the control wells. The cells’ fluorescence was measured before and after the addition of various concentrations of test compounds. The fluorescence values obtained are normalized to that prompted by the corresponding agonist (for channel activating compounds) or upon agonist and antagonist coexposure (for channel blocker compounds).

[1] = HEK-293 cells stably expressing rat TRPM8, menthol as agonist, mean ± SD of at least three measurements, read-out: IC50
[2] = supplementary xlsx, read-out: rTRPM8 IC50 (calcium microfluorimetric assays)

T1 sequence (Q8R455 whole entry, canonical isoform): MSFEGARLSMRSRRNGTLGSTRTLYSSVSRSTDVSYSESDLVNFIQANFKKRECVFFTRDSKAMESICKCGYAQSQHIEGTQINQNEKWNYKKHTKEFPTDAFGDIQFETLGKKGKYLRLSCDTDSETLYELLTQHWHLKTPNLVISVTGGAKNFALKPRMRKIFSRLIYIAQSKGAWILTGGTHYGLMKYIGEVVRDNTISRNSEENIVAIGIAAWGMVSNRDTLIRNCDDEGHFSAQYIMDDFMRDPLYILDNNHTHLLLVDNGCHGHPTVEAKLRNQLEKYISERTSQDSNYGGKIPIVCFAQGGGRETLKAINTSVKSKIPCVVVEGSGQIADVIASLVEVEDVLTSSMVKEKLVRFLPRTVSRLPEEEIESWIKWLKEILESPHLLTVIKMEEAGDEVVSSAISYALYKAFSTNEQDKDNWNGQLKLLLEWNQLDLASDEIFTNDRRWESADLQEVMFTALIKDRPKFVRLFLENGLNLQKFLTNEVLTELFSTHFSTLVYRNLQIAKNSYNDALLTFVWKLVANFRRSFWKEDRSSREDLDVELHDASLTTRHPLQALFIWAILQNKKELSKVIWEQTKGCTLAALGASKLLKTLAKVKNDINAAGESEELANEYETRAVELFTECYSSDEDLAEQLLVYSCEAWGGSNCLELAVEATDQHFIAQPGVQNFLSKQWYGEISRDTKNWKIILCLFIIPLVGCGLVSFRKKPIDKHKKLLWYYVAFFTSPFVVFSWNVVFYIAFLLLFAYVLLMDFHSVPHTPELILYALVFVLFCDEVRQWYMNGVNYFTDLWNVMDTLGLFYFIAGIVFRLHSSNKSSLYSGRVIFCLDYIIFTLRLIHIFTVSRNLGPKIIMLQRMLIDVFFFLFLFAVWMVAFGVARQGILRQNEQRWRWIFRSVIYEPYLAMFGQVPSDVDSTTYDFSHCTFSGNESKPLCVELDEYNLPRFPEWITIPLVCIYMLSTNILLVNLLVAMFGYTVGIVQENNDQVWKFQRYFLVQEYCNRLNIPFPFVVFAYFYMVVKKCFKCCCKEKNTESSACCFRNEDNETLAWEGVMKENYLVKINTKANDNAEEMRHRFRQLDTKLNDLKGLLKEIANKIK

Structure (SMILES)	IC50 [1]	IC50 [2]	rTRPM8 IC50 (calcium microfluorimetric assays) (supplementary xlsx)
COC(=O)[C@@H]1Cc2c([nH]c3ccccc23)[C@H](c2ccccc2)N1Cc1ccccc1 [6b, (1S,3S)-Methyl 2-Benzyl-1-phenyl-2,3,4,9-tetrahydro-1H-pyrido[3,4-b]indole-3-carboxylate]	1.6 ± 0.9 µM	1.4 ± 1.3 µM	–
CC(C)C[C@H]1N[C@H](C(=O)NCc2ccc(F)cc2)Cc2c1[nH]c1ccccc21 [10a, (1R,3S)-N-(4-Fluorobenzyl)-1-isobutyl-2,3,4,9-tetrahydro-1H-pyrido[3,4-b]indole-3-carboxamide]	4.6 ± 1.3 µM	–	–
CC(C)C[C@@H]1N[C@H](C(=O)NCc2ccc(F)cc2)Cc2c1[nH]c1ccccc21 [10b, (1S,3S)-N-(4-Fluorobenzyl)-1-isobutyl-2,3,4,9-tetrahydro-1H-pyrido[3,4-b]indole-3-carboxamide]	6.2 ± 1.2 µM	–	–
COC(=O)CC[C@@H]1N[C@H](C(=O)NCc2ccc(F)cc2)Cc2c1[nH]c1ccccc21 [11b, Methyl 3-((1S,3S)-3-((4-Fluorobenzyl)carbamoyl)-2,3,4,9-tetrahydro-1H-pyrido[3,4-b]indol-1-yl)propanoate]	3 ± 1.2 µM	–	–
O=C(O)CC[C@@H]1N[C@H](C(=O)NCc2ccc(F)cc2)Cc2c1[nH]c1ccccc21 [12b, 3-((1S,3S)-3-((4-Fluorobenzyl)carbamoyl)-2,3,4,9-tetrahydro-1H-pyrido[3,4-b]indol-1-yl)propanoic Acid]	22 ± 1.4 µM	–	–
CC(C)C[C@@H]1c2[nH]c3ccccc3c2C[C@H]2C(=O)N[C@@H](Cc3ccccc3)C(=O)N12 [25a, (3S,6R,12aS)-3-Benzyl-6-isobutyl-2,3,12,12a-tetrahydropyrazino[1′,2′:1,6]pyrido[3,4-b]indole-1,4(6H,7H)-dione]	4.1 ± 1.1 µM	–	–
CC(C)C[C@H]1c2[nH]c3ccccc3c2C[C@H]2C(=O)N[C@@H](Cc3ccccc3)C(=O)N21 [25b, (3S,6S,12aS)-3-Benzyl-6-isobutyl-2,3,12,12a-tetrahydropyrazino[1′,2′:1,6]pyrido[3,4-b]indole-1,4(6H,7H)-dione]	1.3 ± 0.6 µM	0.9 ± 1.2 µM	–
COc1ccc(CN2C(=O)[C@@H]3Cc4c([nH]c5ccccc45)[C@@H](CC(C)C)N3C2=O)cc1 [29a, (5R,11aS)-5-Isobutyl-2-(4-methoxybenzyl)-5,6,11,11a-tetrahydro-1H-imidazo[1′,5′:1,6]pyrido[3,4-b]indole-1,3(2H)-dione]	2.8 ± 1.2 µM	–	22.9 ± 1.4 µM
COc1ccc(CN2C(=O)[C@H]3Cc4c([nH]c5ccccc45)[C@H](CC(C)C)N3C2=O)cc1 [29a′, (5S,11aR)-5-Isobutyl-2-(4-methoxybenzyl)-5,6,11,11a-tetrahydro-1H-imidazo[1′,5′:1,6]pyrido[3,4-b]indole-1,3(2H)-dione]	22.9 ± 1.4 µM	–	–
O=C1[C@@H]2Cc3c([nH]c4ccccc34)[C@@H](c3ccc(F)cc3)N2C(=O)N1Cc1ccccc1 [33a, (5R,11aS)-2-Benzyl-5-(4-fluorophenyl)-5,6,11,11a-tetrahydro-1H-imidazo[1′,5′:1,6]pyrido[3,4-b]indole-1,3(2H)-dione]	6.4 ± 1.2 µM	–	17.5 ± 1.4 µM
O=C1[C@@H]2Cc3c([nH]c4ccccc34)[C@@H](c3ccc(F)cc3)N2C(=O)N1c1cccc(C(F)(F)F)c1 [36a, (5R,11aS)-5-(4-Fluorophenyl)-2-(3-(trifluoromethyl)phenyl)-5,6,11,11a-tetrahydro-1H-imidazo[1′,5′:1,6]pyrido[3,4-b]indole-1,3(2H)-dione]	2.8 ± 1.5 µM	–	7.8 ± 2.4 µM
O=C1[C@H]2Cc3c([nH]c4ccccc34)[C@H](c3ccc(F)cc3)N2C(=O)N1c1cccc(C(F)(F)F)c1 [36a′, (5S,11aR)-5-(4-Fluorophenyl)-2-(3-(trifluoromethyl)phenyl)-5,6,11,11a-tetrahydro-1H-imidazo[1′,5′:1,6]pyrido[3,4-b]indole-1,3(2H)-dione]	7.8 ± 2.4 µM	–	–
O=C1[C@@H]2Cc3c([nH]c4ccccc34)[C@@H](c3ccc(F)cc3)N2C(=O)N1c1ccc(F)cc1 [38a, (5R,11aS)-2,5-Bis(4-fluorophenyl)-5,6,11,11a-tetrahydro-1H-imidazo[1′,5′:1,6]pyrido[3,4-b]indole-1,3(2H)-dione]	6.7 ± 1.2 µM	–	7.2 ± 0.9 µM
O=C1[C@H]2Cc3c([nH]c4ccccc34)[C@H](c3ccc(F)cc3)N2C(=O)N1c1ccc(F)cc1 [38a′, (5S,11aR)-2,5-Bis(4-fluorophenyl)-5,6,11,11a-tetrahydro-1H-imidazo[1′,5′:1,6]pyrido[3,4-b]indole-1,3(2H)-dione]	7.2 ± 0.9 µM	–	–
Cc1cccc(COc2ccccc2C(=O)N(CCCN)Cc2cccs2)c1 [AMTB, reference compound]	7.3 ± 1.5 µM	–	–
COC(=O)[C@@H]1Cc2c([nH]c3ccccc23)CN1C(=O)CCN [compound 17, (S)-Methyl 2-(3-Aminopropanoyl)-2,3,4,9-tetrahydro-1H-pyrido[3,4-b]indole-3-carboxylate]	> 100 µM	–	–
O=C1NCC(=O)N2Cc3[nH]c4ccccc4c3C[C@@H]12 [compound 21, (S)-2,3,6,7,12,12a-Hexahydropyrazino[1′,2′:1,6]pyrido[3,4-b]indole-1,4-dione]	11.4 ± 1.6 µM	–	–
O=C1N[C@@H](Cc2ccccc2)C(=O)N2Cc3[nH]c4ccccc4c3C[C@@H]12 [compound 22, (3S,12aS)-3-Benzyl-2,3,12,12a-tetrahydropyrazino[1′,2′:1,6]pyrido[3,4-b]indole-1,4(6H,7H)-dione]	1.6 ± 0.7 µM	1.2 ± 1.3 µM	–
O=C1[C@@H]2Cc3c([nH]c4ccccc34)CN2C(=O)N1Cc1ccc(F)cc1 [compound 28, (S)-2-(4-Fluorobenzyl)-5,6,11,11a-tetrahydro-1H-imidazo[1′,5′:1,6]pyrido[3,4-b]indole-1,3(2H)-dione]	17.8 ± 1.2 µM	–	–

Continued, values first:

IC50 [1]	IC50 [2]	rTRPM8 IC50 (calcium microfluorimetric assays) (supplementary xlsx)	Structure (SMILES)
1.5 ± 1.1 µM	–	–	O=C1NCC(=O)N2[C@H](c3ccc(Cl)cc3)c3[nH]c4ccccc4c3C[C@@H]12 [27a, (6R,12aS)-6-(4-Chlorophenyl)-2,3,12,12a-tetrahydropyrazino[1′,2′:1,6]pyrido[3,4-b]indole-1,4(6H,7H)-dione]
1.7 ± 0.8 µM	1.2 ± 1.7 µM	–	O=C1NCC(=O)N2[C@@H](c3ccc(Cl)cc3)c3[nH]c4ccccc4c3C[C@@H]12 [27b, (6S,12aS)-6-(4-Chlorophenyl)-2,3,12,12a-tetrahydropyrazino[1′,2′:1,6]pyrido[3,4-b]indole-1,4(6H,7H)-dione]
0.8 ± 0.4 µM	–	2.3 ± 0.8 µM	Cc1ccc(CN2C(=O)[C@@H]3Cc4c([nH]c5ccccc45)[C@@H](c4ccc(Cl)cc4)N3C2=O)cc1 [30a, (5R,11aS)-5-(4-Chlorophenyl)-2-(4-methylbenzyl)-5,6,11,11a-tetrahydro-1H-imidazo[1′,5′:1,6]pyrido[3,4-b]indole-1,3(2H)-dione]
2.3 ± 0.8 µM	–	–	Cc1ccc(CN2C(=O)[C@H]3Cc4c([nH]c5ccccc45)[C@H](c4ccc(Cl)cc4)N3C2=O)cc1 [30a′, (5S,11aR)-5-(4-Chlorophenyl)-2-(4-methylbenzyl)-5,6,11,11a-tetrahydro-1H-imidazo[1′,5′:1,6]pyrido[3,4-b]indole-1,3(2H)-dione]
> 30 µM	–	–	O=C1[C@H]2Cc3c([nH]c4ccccc34)[C@H](c3ccc(Cl)cc3)N2C(=O)N1Cc1ccc(F)cc1 [31a′, (5S,11aR)-5-(4-Chlorophenyl)-2-(4-fluorobenzyl)-5,6,11,11a-tetrahydro-1H-imidazo[1′,5′:1,6]pyrido[3,4-b]indole-1,3(2H)-dione]
17.5 ± 1.4 µM	–	–	O=C1[C@H]2Cc3c([nH]c4ccccc34)[C@H](c3ccc(F)cc3)N2C(=O)N1Cc1ccccc1 [33a′, (5S,11aR)-2-Benzyl-5-(4-fluorophenyl)-5,6,11,11a-tetrahydro-1H-imidazo[1′,5′:1,6]pyrido[3,4-b]indole-1,3(2H)-dione]
5.1 ± 1.2 µM	–	27.2 ± 1.4 µM	NCCCN1C(=O)[C@@H]2Cc3c([nH]c4ccccc34)[C@@H](c3ccc(F)cc3)N2C1=O [35a, (5R,11aS)-2-(3-Aminopropyl)-5-(4-fluorophenyl)-5,6,11,11a-tetrahydro-1H-imidazo[1′,5′:1,6]pyrido[3,4-b]indole-1,3(2H)-dione]
27.2 ± 1.4 µM	–	–	NCCCN1C(=O)[C@H]2Cc3c([nH]c4ccccc34)[C@H](c3ccc(F)cc3)N2C1=O [35a′, (5S,11aR)-2-(3-Aminopropyl)-5-(4-fluorophenyl)-5,6,11,11a-tetrahydro-1H-imidazo[1′,5′:1,6]pyrido[3,4-b]indole-1,3(2H)-dione]
4.4 ± 1.3 µM	–	5.1 ± 2.1 µM	O=C1[C@@H]2Cc3c([nH]c4ccccc34)[C@@H](c3ccc(F)cc3)N2C(=O)N1c1ccccc1F [37a, (5R,11aS)-2-(2-Fluorophenyl)-5-(4-fluorophenyl)-5,6,11,11a-tetrahydro-1H-imidazo[1′,5′:1,6]pyrido[3,4-b]indole-1,3(2H)-dione]
5.1 ± 2.1 µM	–	–	O=C1[C@H]2Cc3c([nH]c4ccccc34)[C@H](c3ccc(F)cc3)N2C(=O)N1c1ccccc1F [37a′, (5S,11aR)-2-(2-Fluorophenyl)-5-(4-fluorophenyl)-5,6,11,11a-tetrahydro-1H-imidazo[1′,5′:1,6]pyrido[3,4-b]indole-1,3(2H)-dione]
